Data from ChEMBL document CHEMBL4373739, “6-Cinnamoyl-4-arylaminothienopyrimidines as highly potent cytotoxic agents: Design, synthesis and structure-activity relationship studies” (Eur J Med Chem, 2020).
The source made the active and inactive calls. The rule behind the calls is not given here.

What was measured:
PC-3 = assay: Antiproliferative activity against human PC3 cells incubated for 48 hrs by MTT assay; assay type: functional, cell-based; settings: PC-3, 48 h
MDA-MB-231 = assay: Antiproliferative activity against human MDA-MB-231 cells incubated for 48 hrs by MTT assay; assay type: functional, cell-based; settings: MDA-MB-231, 48 h
MCF7 = assay: Antiproliferative activity against human MCF7 cells incubated for 48 hrs by MTT assay; assay type: functional, cell-based; settings: MCF7, 48 h
HepG2 = assay: Antiproliferative activity against human HepG2 cells incubated for 48 hrs by MTT assay; assay type: functional, cell-based; settings: HepG2, 48 h
A549 = assay: Antiproliferative activity against human A549 cells incubated for 48 hrs by MTT assay; assay type: functional, cell-based; settings: A549, 48 h
HeLa [1] = assay: Antiproliferative activity against human HeLa cells incubated for 48 hrs by MTT assay; assay type: functional, cell-based
HCT-116 = assay: Antiproliferative activity against human HCT116 cells incubated for 48 hrs by MTT assay; assay type: functional, cell-based; settings: HCT-116, 48 h
SW480 = assay: Antiproliferative activity against human SW480 cells incubated for 48 hrs by MTT assay; assay type: functional, cell-based; settings: SW480, 48 h
SK-BR-3 = assay: Antiproliferative activity against human SKBR3 cells incubated for 48 hrs by MTT assay; assay type: functional, cell-based; settings: SK-BR-3, 48 h
SK-OV-3 = assay: Antiproliferative activity against human SKOV3 cells incubated for 48 hrs by MTT assay; assay type: functional, cell-based; settings: SK-OV-3, 48 h
U-87 MG = assay: Antiproliferative activity against human U87 cells incubated for 48 hrs by MTT assay; assay type: functional, cell-based, U-87MG ATCC
MRC5 = assay: Cytotoxicity against human MRC5 cells incubated for 48 hrs by MTT assay; assay type: cell-based; settings: MRC5, 48 h
[2] = Selectivity index, ratio of IC50 for human MRC5 to IC50 for human A549; assay type: toxicity; settings: MRC5 cells and A549 cells, read-out: Ratio IC50
HeLa [3] = assay: Induction of cell cycle arrest in human HeLa cells assessed as increase in cell population at sub-G1 phase at IC50 concentration after 48 hrs by RNase/propidium iodide staining based flow cytometry analysis; assay type: functional
HeLa [4] = assay: Induction of apoptosis in human HeLa cells assessed as live cells at IC50 concentration after 48 hrs by AnnexinV-APC/propidium iodide staining based FACScalibur flow cytometry analysis (reference value: 92 %); assay type: functional
HeLa [5] = assay: Induction of apoptosis in human HeLa cells assessed as early apoptotic cells at IC50 concentration after 48 hrs by AnnexinV-APC/propidium iodide staining based FACScalibur flow cytometry analysis (reference value: 3.23 %); assay type: functional
HeLa [6] = assay: Induction of apoptosis in human HeLa cells assessed as late apoptotic cells at IC50 concentration after 48 hrs by AnnexinV-APC/propidium iodide staining based FACScalibur flow cytometry analysis (reference value: 4.30 %); assay type: functional
HeLa [7] = assay: Induction of apoptosis in human HeLa cells assessed as necrotic cells at IC50 concentration after 48 hrs by AnnexinV-APC/propidium iodide staining based FACScalibur flow cytometry analysis (reference value: 0.457 %); assay type: functional
[8] = biological target: Epidermal growth factor receptor (Homo sapiens) (UniProt P00533); assay: Inhibition of EGFR in human HeLa cells assessed as reduction in ERK 1/2 phosphorylation at IC50 concentration measured upto 48 hrs by Western blot analysis; assay type: cell-based
Sequence of Epidermal growth factor receptor (Homo sapiens) (P00533 whole entry): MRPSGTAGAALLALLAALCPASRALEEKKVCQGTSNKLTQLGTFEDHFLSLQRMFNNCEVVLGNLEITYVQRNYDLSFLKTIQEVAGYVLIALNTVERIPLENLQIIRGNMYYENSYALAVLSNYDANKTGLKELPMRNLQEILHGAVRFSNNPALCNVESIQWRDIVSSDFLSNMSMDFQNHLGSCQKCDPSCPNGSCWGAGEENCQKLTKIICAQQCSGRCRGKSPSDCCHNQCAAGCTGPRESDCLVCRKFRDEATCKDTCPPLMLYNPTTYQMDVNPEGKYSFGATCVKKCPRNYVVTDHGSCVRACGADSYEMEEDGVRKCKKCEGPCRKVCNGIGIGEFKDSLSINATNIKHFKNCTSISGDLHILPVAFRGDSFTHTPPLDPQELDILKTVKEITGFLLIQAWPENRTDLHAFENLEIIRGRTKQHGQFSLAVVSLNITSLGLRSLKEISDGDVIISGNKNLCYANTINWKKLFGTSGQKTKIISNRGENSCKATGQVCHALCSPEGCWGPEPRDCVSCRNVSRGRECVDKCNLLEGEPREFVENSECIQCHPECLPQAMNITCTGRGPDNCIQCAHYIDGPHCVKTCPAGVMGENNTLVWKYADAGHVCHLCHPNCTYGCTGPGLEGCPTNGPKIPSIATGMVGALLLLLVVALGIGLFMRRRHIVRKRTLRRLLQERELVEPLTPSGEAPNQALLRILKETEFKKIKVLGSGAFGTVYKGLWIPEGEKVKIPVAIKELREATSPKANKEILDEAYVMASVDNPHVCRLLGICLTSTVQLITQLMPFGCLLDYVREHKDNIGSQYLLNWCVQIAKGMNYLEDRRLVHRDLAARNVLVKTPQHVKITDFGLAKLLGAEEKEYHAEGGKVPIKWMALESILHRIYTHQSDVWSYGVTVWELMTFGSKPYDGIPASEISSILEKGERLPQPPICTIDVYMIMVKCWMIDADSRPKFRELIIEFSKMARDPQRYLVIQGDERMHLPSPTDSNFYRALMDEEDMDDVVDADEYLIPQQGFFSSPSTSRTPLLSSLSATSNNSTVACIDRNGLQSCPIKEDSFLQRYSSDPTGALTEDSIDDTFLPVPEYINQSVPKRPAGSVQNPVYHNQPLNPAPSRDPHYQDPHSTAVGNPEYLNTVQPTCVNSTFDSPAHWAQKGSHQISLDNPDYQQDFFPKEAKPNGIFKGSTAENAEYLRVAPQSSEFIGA

[9] = biological target: Epidermal growth factor receptor (Homo sapiens) (UniProt P00533); assay: Inhibition of EGFR in human HeLa cells assessed as effect on AKT phosphorylation at IC50 concentration measured upto 48 hrs by Western blot analysis; assay type: cell-based
[10] = biological target: Epidermal growth factor receptor (Homo sapiens) (UniProt P00533); assay: Inhibition of EGFR phosphorylation in human HeLa cells at IC50 concentration measured upto 48 hrs by Western blot analysis; assay type: cell-based
HeLa [11] = assay: Induction of apoptosis in human HeLa cells assessed as live cells after 48 hrs by AnnexinV-APC/propidium iodide staining based FACScalibur flow cytometry analysis (reference value: 92 %); assay type: functional
HeLa [12] = assay: Induction of apoptosis in human HeLa cells assessed as early apoptotic cells after 48 hrs by AnnexinV-APC/propidium iodide staining based FACScalibur flow cytometry analysis (reference value: 3.23 %); assay type: functional
HeLa [13] = assay: Induction of apoptosis in human HeLa cells assessed as late apoptotic cells after 48 hrs by AnnexinV-APC/propidium iodide staining based FACScalibur flow cytometry analysis (reference value: 4.30 %); assay type: functional
HeLa [14] = assay: Induction of apoptosis in human HeLa cells assessed as necrotic cells after 48 hrs by AnnexinV-APC/propidium iodide staining based FACScalibur flow cytometry analysis (reference value: 0.457 %); assay type: functional

| IC50 (PC-3) [µM] | IC50 (MDA-MB-231) [µM] | IC50 (MCF7) [µM] | IC50 (HepG2) [µM] | IC50 (A549) [µM] | IC50 (HeLa [1]) [µM] | Structure (SMILES) | other results |
| --- | --- | --- | --- | --- | --- | --- | --- |
| 0.54 | 1.04 | > 100 | 15.9 | 17.2 | 7.22 | N#Cc1cccc(Nc2ncnc3cc(NC(=O)/C=C/c4ccccc4)sc23)c1 |  |
| 0.2 | 2.1 | 30.9 | 10.6 | 6.67 | 2.81 | O=C(/C=C/c1ccccc1)Nc1cc2ncnc(Nc3ccc(F)c(Cl)c3)c2s1 |  |
| 0.4 | 5.05 | 38.4 | 58.1 | 10.1 | 4.64 | C#Cc1cccc(Nc2ncnc3sc(NC(=O)/C=C/c4ccccc4)cc23)c1 |  |
| 0.48 | 4.4 | 15.3 | 30.1 | 7.6 | 0.43 | O=C(/C=C/c1ccccc1)Nc1cc2c(Nc3ccc(Cl)c(Cl)c3)ncnc2s1 |  |
| 0.22 | 1 | > 100 | 10.7 | 12.5 | 3.21 | O=C(/C=C/c1ccccc1)Nc1cc2ncnc(Nc3cc(Cl)cc(Cl)c3)c2s1 |  |
| 0.26 | 2.41 | > 100 | 13.4 | 19.4 | 10.7 | O=C(/C=C/c1ccccc1)Nc1cc2ncnc(Nc3ccc(Cl)c(Cl)c3)c2s1 |  |
| 0.7 | 2.34 | 75.6 | 15.4 | 26.2 | 20.5 | C#Cc1cccc(Nc2ncnc3cc(NC(=O)/C=C/c4ccccc4)sc23)c1 |  |
| 0.7 | 7.6 | 14.3 | 22.8 | 11.2 | 2.14 | O=C(/C=C/c1ccccc1)Nc1cc2c(Nc3ccc(F)c(Cl)c3)ncnc2s1 |  |

The next lines start with the molecule.

| Structure (SMILES) | IC50 (PC-3) [µM] | IC50 (MDA-MB-231) [µM] | IC50 (MCF7) [µM] | IC50 (HepG2) [µM] | IC50 (A549) [µM] | IC50 (HeLa [1]) [µM] | other results |
| --- | --- | --- | --- | --- | --- | --- | --- |
| O=C(/C=C/c1ccccc1)Nc1cc2c(Nc3cccc(Cl)c3F)ncnc2s1 | 0.4 | 3.93 | 93.9 | 44.6 | 26.2 | 34.9 |  |
| COc1ccc(/C=C/C(=O)Nc2cc3c(Nc4cc(Cl)cc(Cl)c4)ncnc3s2)cc1 | 0.45 | 1.97 | 75.6 | 41.8 | 21.9 | 43.3 |  |
| COc1ccc(/C=C/C(=O)Nc2cc3c(Nc4ccc(Cl)c(Cl)c4)ncnc3s2)cc1 | 0.79 | 16.6 | 20.1 | 30.6 | 3.32 | 0.033 | IC50 (HCT-116): 7.41 µM; IC50 (SW480): 5.75 µM; IC50 (SK-BR-3): 11.9 µM; IC50 (SK-OV-3): 10.7 µM; IC50 (U-87 MG): 4.4 µM; IC50 (MRC5): 18.7 µM; selectivity ratio [2]: 5.6; Activity (HeLa [3]): Active; Activity (HeLa [4]): 66.8%; Activity (HeLa [5]): 15.7%; Activity (HeLa [6]): 15.5%; Activity (HeLa [7]): 2% |
| O=C(/C=C/c1ccccc1)Nc1cc2c(Nc3cc(Cl)cc(Cl)c3)ncnc2s1 | 0.39 | 11.5 | 5.8 | 21.8 | 0.04 | 0.004 | IC50 (HCT-116): 3.83 µM; IC50 (SW480): 4.93 µM; IC50 (SK-BR-3): 6.46 µM; IC50 (SK-OV-3): 10.9 µM; IC50 (U-87 MG): 4.49 µM; IC50 (MRC5): 28.8 µM; selectivity ratio [2]: 720; Activity (HeLa [3]): Active; Activity (HeLa [4]): 45.8%; Activity (HeLa [5]): 42.8%; Activity (HeLa [6]): 11%; Activity (HeLa [7]): 0.448%; inhibition [8]: Active; inhibition [9]: inactive; inhibition [10]: Active |
| O=C(/C=C/c1ccc(O)cc1)Nc1cc2c(Nc3ccc(Cl)c(Cl)c3)ncnc2s1 | 0.3 | 1.98 | 60.6 | 42.9 | 34.3 | 24.8 |  |
| C#Cc1cccc(Nc2ncnc3cc(OCCOC)c(OCCOC)cc23)c1 [ERLOTINIB] | 7 | 8.3 | 11.7 | 28.8 | 3.8 | 7.48 | IC50 (HCT-116): 23.3 µM; IC50 (SW480): 23 µM; IC50 (SK-BR-3): 49.3 µM; IC50 (SK-OV-3): 61.8 µM; IC50 (U-87 MG): 31.9 µM; Activity (HeLa [11]): 52.7%; Activity (HeLa [12]): 26.2%; Activity (HeLa [13]): 15%; Activity (HeLa [14]): 6.06% |
| COc1ccc(/C=C/C(=O)Nc2cc3ncnc(Nc4ccc(F)c(Cl)c4)c3s2)cc1 | 0.1 | 2.6 | 29.1 | 13.9 | 22.7 | 20.6 |  |
